This passage reports IC50 results from patent US20220380370A1 (Goldfinch Bio, Inc., priority 2019, published 2022).

Structures are written as SMILES. A value given as a limit tells only on which side of the number the result lay.

The target in this assay is T1, CB1 receptor (Homo sapiens, UniProt P21554).
T1 construct: Perkin Elmer (CB1-CHO cells); host or cells: Flp-In CHO cells or CB1-CHO cells, stably expressing
T1 sequence (P21554 whole entry): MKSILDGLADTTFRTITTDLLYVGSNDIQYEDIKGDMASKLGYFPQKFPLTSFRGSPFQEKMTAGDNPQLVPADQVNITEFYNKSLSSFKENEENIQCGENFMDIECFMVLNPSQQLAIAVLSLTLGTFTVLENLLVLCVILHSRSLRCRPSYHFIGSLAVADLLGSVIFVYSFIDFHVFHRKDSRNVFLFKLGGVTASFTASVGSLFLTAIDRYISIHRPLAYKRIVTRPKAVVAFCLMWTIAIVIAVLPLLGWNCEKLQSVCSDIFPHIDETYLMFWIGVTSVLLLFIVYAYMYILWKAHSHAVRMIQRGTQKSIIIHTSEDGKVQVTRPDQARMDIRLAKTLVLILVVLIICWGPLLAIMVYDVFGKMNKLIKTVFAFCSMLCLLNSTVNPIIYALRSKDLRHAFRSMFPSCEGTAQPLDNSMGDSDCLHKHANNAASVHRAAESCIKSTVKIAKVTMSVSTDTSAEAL
In words: CB1 cAMP antagonist assay (LANCE Ultra cAMP kit). The format is cell-based. The following applies: CHO cells stably expressing the CB1 receptor; forskolin and agonist CP55940 at EC90. The source says:
LANCE Ultra cAMP kit (Perkin Elmer) was used to quantitate the amount of 3′,5′-cyclic adenosine monophosphate (cAMP) produced in Flp-In CHO cells (Invitrogen) stably expressing the CB1 receptor, CB1-CHO cells (Perkin Elmer) stably expressing the CB1 receptor, or CB2-CHO cells (Perkin Elmer) stably expressing the CB2 receptor.
Forskolin was initially titrated to determine the response of the cells. The EC90 of forskolin was used for compound testing. CP55940 was titrated and used with EC90 of forskolin to determine the level of agonist stimulation. EC90 of the agonist was used for subsequent compound testing. For the CB1 assay, Forskolin (Sigma), CP55940 (Cayman Chemicals), and AM251 (MCE) were diluted in 100% DMSO, starting at 100 mM, 1 mM, and 1 mM respectively, in 3-fold serial dilutions. For the CB2 assay, Forskolin (Sigma), CP55940 (Cayman Chemicals), and AM630 (MCE) were diluted in 100% DMSO, starting at 100 mM, 1 mM, and 30 mM respectively, in 3-fold serial dilutions. Test compounds were diluted in 100% DMSO starting from 10 mM, 3-fold dilutions. The cAMP assay buffer contains 1× Hank's Buffered Saline Solution with Ca^2+ and Mg^2+ (Invitrogen), 5.3 mM HEPES (Invitrogen), 0.05% BSA, 0.5 mM IBMX (Sigma). For all assays, cells were harvested, counted, and diluted in cAMP assay buffer to 1×10^5 cells/mL. Only cells with viability >85% were used for the assay. Cells were seeded at 1000 cells/well in 384-well plates and 10 nL/well AM251 (for CB1), AM630 (for CB2) or test compound was added and incubated at 37° C. for 10 min. Then forskolin and agonist were added to reach their EC90 and incubated at 25° C. for 30 min. To detect the amount of cAMP produced, 5 μL of a 100× diluted stock of Eu-cAMP tracer and 5 μL of 200× diluted stock of Ulight-anti-cAMP were added to each well, and the plate incubated at 25° C. for 15 min. The FRET signal was read using an EnVision microplate reader (λex=320 nm, λem=615 nm and 665 nm). The results are expressed as % Inhibition, where % inhibition=100−100×(U−C2)/(C1−C2), where U is the FRET ratio (λem (665 nm)/λem (615 nm)) of sample, C1 is the average of the high controls (signal with no antagonist added), and C2 is the average of low controls (signal with the highest concentration of AM251 or AM630 antagonist). The IC50 is determined by fitting the percentage of inhibition as a function of compound concentrations with the Hill equation, using a 4-parameter fit in either XLfit or GraphPad Prism.
For orientation: IC50 means the concentration at which inhibition is half-maximal. Low readings indicate higher potency, high ones lower potency. As for `COC(=O)c1ccc(Cn2c(=O)n(C)c(=O)c3c2nc(-c2ccccc2Cl)n3-c2ccc(Cl)cc2)cc1` [Compound 108], the 50% inhibitory concentration (IC50) was under 0.1 µM.

As for `Cn1c(=O)c2c(nc(-c3ccccc3Cl)n2-c2ccc(Cl)cc2)n(Cc2ccc(Cl)cc2)c1=O` [Compound 109, 8-(2-chlorophenyl)-7-(4-chlorophenyl)-3-[(4-chlorophenyl)methyl]-1-methyl-2,3,6,7-tetrahydro-1H-purine-2,6-dione], the IC50 is under 0.1 µM.

As to `Cn1c(=O)c2c(nc(-c3ccccc3Cl)n2-c2ccc(Cl)cc2)n(CC2CCCCC2)c1=O` [Compound 110, 8-(2-chlorophenyl)-7-(4-chlorophenyl)-3-(cyclohexylmethyl)-1-methyl-2,3,6,7-tetrahydro-1H-purine-2,6-dione], the IC50 was under 0.1 µM.

`Cn1c(=O)c2c(nc(-c3ccccc3Cl)n2-c2ccc(Cl)cc2)n(Cc2ccc(C(=O)O)cc2)c1=O` [Compound 111, 4-[[8-(2-chlorophenyl)-7-(4-chlorophenyl)-1-methyl-2,6-dioxo-2,3,6,7-tetrahydro-1H-purin-3-yl]methyl]benzoic acid]: the IC50 was in the range of 1 to 5 µM.

For `Cn1c(=O)c2c(nc(-c3ccccc3Cl)n2-c2ccc(Cl)cc2)n(CC2CCN(C[C@H](O)CO)CC2)c1=O` [Compound 113, 8-(2-chlorophenyl)-7-(4-chlorophenyl)-3-([1-[(2S)-2,3-dihydroxypropyl]piperidin-4-yl]methyl)-1-methyl-2,3,6,7-tetrahydro-1H-purine-2,6-dione], the IC50 is at least 5 µM.

Compound `Cn1c(=O)c2c(nc(-c3ccccc3Cl)n2-c2ccc(Cl)cc2)n(CC2CCN(CC(N)=O)CC2)c1=O` [Compound 115, 2-(4-[[8-(2-chlorophenyl)-7-(4-chlorophenyl)-1-methyl-2,6-dioxo-2,3,6,7-tetrahydro-1H-purin-3-yl]methyl]piperidin-1-yl)acetamide] returned an IC50 of 0.1 to 1 µM.

`CN1CCC(Cn2c(=O)n(C)c(=O)c3c2nc(-c2ccccc2Cl)n3-c2ccc(Cl)cc2)CC1` [Compound 116, 8-(2-chlorophenyl)-7-(4-chlorophenyl)-1-methyl-3-[(1-methylpiperidin-4-yl)methyl]-2,3,6,7-tetrahydro-1H-purine-2,6-dione] displayed an IC50 of at least 5 µM.

The compound `NC(=O)Cn1c(=O)c2c(nc(-c3ccccc3Cl)n2-c2ccc(Cl)cc2)n(CC2CCN(CCO)CC2)c1=O` [Compound 117] yielded an IC50 of at least 5 µM.

Regarding `CN1CCN(Cc2ccc(Cn3c(=O)n(CC(N)=O)c(=O)c4c3nc(-c3ccccc3Cl)n4-c3ccc(Cl)cc3)cc2)CC1` [Compound 118], the IC50 lay in the range of 1 to 5 µM.

`O=c1[nH]c(=O)n(Cc2ccc(Cl)cc2)c2nc(-c3ccccc3Cl)n(-c3ccc(Cl)cc3)c12` [Compound 119, 8-(2-chlorophenyl)-7-(4-chlorophenyl)-3-[(4-chlorophenyl)methyl]-2,3,6,7-tetrahydro-1H-purine-2,6-dione] displayed an IC50 of under 0.1 µM.

Regarding `CN(CCO)Cc1ccc(Cn2c(=O)n(C)c(=O)c3c2nc(-c2ccccc2Cl)n3-c2ccc(Cl)cc2)cc1` [Compound 120], the IC50 lay within 0.1 to 1 µM.

In the case of `NC(=O)Cn1c(=O)c2c(nc(-c3ccccc3Cl)n2-c2ccc(Cl)cc2)n(Cc2ccc(CN3CCOCC3)cc2)c1=O` [Compound 121, 2-[8-(2-chlorophenyl)-7-(4-chlorophenyl)-3-([4-[(morpholin-4-yl)methyl]phenyl]methyl)-2,6-dioxo-2,3,6,7-tetrahydro-1H-purin-1-yl]acetamide], the IC50 was under 0.1 µM.

`COCCOCc1ccc(Cn2c(=O)n(C)c(=O)c3c2nc(-c2ccccc2Cl)n3-c2ccc(Cl)cc2)cc1` [Compound 122, 8-(2-chlorophenyl)-7-(4-chlorophenyl)-3-([4-[(2-methoxyethoxy)methyl]phenyl]methyl)-1-methylpurine-2,6-dione] displayed an IC50 of under 0.1 µM.

Take `CC(=O)N1CCC(Cn2c(=O)n(CC(N)=O)c(=O)c3c2nc(-c2ccccc2Cl)n3-c2ccc(Cl)cc2)CC1` [Compound 123, 2-[3-[(1-acetylpiperidin-4-yl)methyl]-8-(2-chlorophenyl)-7-(4-chlorophenyl)-2,6-dioxopurin-1-yl]acetamide]: the IC50 fell in the range of 0.1 to 1 µM.

The compound `CN(CCO)C(=O)c1ccc(Cn2c(=O)n(C)c(=O)c3c2nc(-c2ccccc2Cl)n3-c2ccc(Cl)cc2)cc1` [Compound 126] came in with an IC50 of 0.1 to 1 µM.

`CC(=O)N1CCC(Cn2c(=O)n(C(C)C(N)=O)c(=O)c3c2nc(-c2ccccc2Cl)n3-c2ccc(Cl)cc2)CC1` (stereo not drawn) [Compound 129, 2-[3-[(1-acetylpiperidin-4-yl)methyl]-8-(2-chlorophenyl)-7-(4-chlorophenyl)-2,6-dioxopurin-1-yl]propanamide] had an IC50 of 0.1 to 1 µM.

`CC(=O)N1CCC(Cn2c(=O)n(C[C@@H](O)CO)c(=O)c3c2nc(-c2ccccc2Cl)n3-c2ccc(Cl)cc2)CC1` [Compound 130, (R)-3-[(1-acetylpiperidin-4-yl)methyl]-8-(2-chlorophenyl)-7-(4-chlorophenyl)-1-[2,3-dihydroxypropyl]purine-2,6-dione] had an IC50 of 0.1 to 1 µM.

The compound `NC(=O)Cn1c(=O)c2c(nc(-c3ccccc3Cl)n2-c2ccc(Cl)cc2)n(C2CCOCC2)c1=O` [Compound 133] returned an IC50 of under 0.1 µM.

`C[C@H](C(N)=O)n1c(=O)c2c(nc(-c3ccccc3Cl)n2-c2ccc(Cl)cc2)n(C2CCOCC2)c1=O` [Compound 137] yielded an IC50 of 0.1 to 1 µM.

In the case of `C[C@@H](C(N)=O)n1c(=O)c2c(nc(-c3ccccc3Cl)n2-c2ccc(Cl)cc2)n(CC2CCOCC2)c1=O` [Compound 139], the IC50 was under 0.1 µM.

Compound `NC(=O)Cn1c(=O)c2c(nc(-c3ccccc3Cl)n2-c2ccc(Cl)cc2)n(Cc2ccc([C@H]3COCCO3)cc2)c1=O` [Compound 141, 2-[8-(2-chlorophenyl)-7-(4-chlorophenyl)-3-([4-[(2S)-1,4-dioxan-2-yl]phenyl]methyl)-2,6-dioxopurin-1-yl]acetamide] returned an IC50 of under 0.1 µM.

For the compound `NC(=O)Cn1c(=O)c2c(nc(-c3ccccc3Cl)n2-c2ccc(Cl)cc2)n(Cc2ccc(CC3COCCO3)cc2)c1=O` (stereo not drawn) [Compound 143], the 50% inhibitory concentration (IC50) was under 0.1 µM.

`NC(=O)Cn1c(=O)c2c(nc(-c3ccccc3Cl)n2-c2ccc(Cl)cc2)n(Cc2ccc([C@@H]3COCCO3)cc2)c1=O` [Compound 145, 2-[8-(2-chlorophenyl)-7-(4-chlorophenyl)-3-([4-[(2R)-1,4-dioxan-2-yl]phenyl]methyl)-2,6-dioxopurin-1-yl]acetamide] came in with an IC50 of under 0.1 µM.

The compound `Cn1c(=O)[nH]c2nc(-c3ccccc3Cl)n(-c3ccc(Cl)cc3)c2c1=O` [Compound 147, 8-(2-chlorophenyl)-7-(4-chlorophenyl)-1-methyl-3H-purine-2,6-dione] displayed an IC50 of 1 to 5 µM.

On to `Cn1c(=O)c2c(nc(-c3ccccc3Cl)n2-c2ccc(Cl)nc2)n(C2CCCCC2)c1=O` [Compound 149, 8-(2-chlorophenyl)-7-(6-chloropyridin-3-yl)-3-cyclohexyl-1-methylpurine-2,6-dione], for which the IC50 was under 0.1 µM.

With `C[C@@H](c1ccc(C(N)=O)cc1)n1c(=O)n(C[C@@H](O)CO)c(=O)c2c1nc(-c1ccccc1Cl)n2-c1ccc(Cl)cc1` [Compound 151], the IC50 lay in the range of 0.1 to 1 µM.

Compound `Cn1c(=O)c2c(nc(-c3cccnc3Cl)n2-c2ccc(Cl)cc2)n(C2CCCCC2)c1=O` [Compound 152, 7-(4-chlorophenyl)-8-(2-chloropyridin-3-yl)-3-cyclohexyl-1-methylpurine-2,6-dione] showed an IC50 of under 0.1 µM.

`NC(=O)Cn1c(=O)c2c(nc(-c3ccccc3Cl)n2-c2ccc(Cl)cc2)n(Cc2ccc(S(N)(=O)=O)cc2)c1=O` [Compound 153] registered an IC50 of under 0.1 µM.

Regarding `CS(=O)(=O)c1ccc(Cn2c(=O)n(CC(N)=O)c(=O)c3c2nc(-c2ccccc2Cl)n3-c2ccc(Cl)cc2)nc1` [Compound 154], the IC50 was under 0.1 µM.

Consider `CS(=O)(=O)c1ccc(Cn2c(=O)n(CC(N)=O)c(=O)c3c2nc(-c2ccccc2Cl)n3-c2ccc(Cl)cc2)cc1` [Compound 155, 2-[8-(2-chlorophenyl)-7-(4-chlorophenyl)-3-[(4-methanesulfonylphenyl)methyl]-2,6-dioxopurin-1-yl]acetamide], for which the IC50 is under 0.1 µM.
